Earlier results in article PMC11682675 (Infection and Drug Resistance, 2024).
Residues, ends and D or L forms follow the SMILES beside them.

Conditions: reported by some studies

CL of PMB in ECMO patients: 1.16 L/h
Vd of PMB in ECMO patients: 19.7 L
SMILES: CC[C@H](C)CCCCC(=O)N[C@@H](CCN)C(=O)N[C@H](C(=O)N[C@@H](CCN)C(=O)N[C@H]1CCNC(=O)[C@H]([C@@H](C)O)NC(=O)[C@H](CCN)NC(=O)[C@H](CCN)NC(=O)[C@H](CC(C)C)NC(=O)[C@@H](Cc2ccccc2)NC(=O)[C@H](CCN)NC1=O)[C@@H](C)O [PMB, Polymyxin B] (HELM PEPTIDE1{[CC[C@H](C)CCCCC(=O)[*:2]].[Dab].T.[Dab].[Dab].[Dab].[dF].L.[Dab].[Dab].T}$PEPTIDE1,PEPTIDE1,5:R3-11:R2$$$V2.0)
